Assay results as given in patent US20190031618A1, “BENZIMIDAZOLE DERIVATIVES USEFUL AS CB-1 INVERSE AGONISTS” (Janssen Pharmaceutica NV, priority 2015, published 2019).

How the values were obtained:
[1] = biological target: Human CB1R (Cannabinoid receptor 1) (Homo sapiens, UniProt P21554); test: CB-1 in vitro cAMP (HTRF) assay; type: cell-based; details: HEK cells, cAMP HTRF, 250 nM forskolin; mean where tested more than once; read-out: CB1 HEK_cAMP EC50
Summary of the method: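 Intracellular cAMP from HTRF ratio (d2-cAMP vs Eu-cryptate anti-cAMP), converted to nM via per-plate standards, in stable human CB1R HEK-293 cells.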

[2] = biological target: Human CB2R (Cannabinoid receptor 2) (Homo sapiens, UniProt P34972); test: CB-2 in vitro cAMP (HTRF) assay; type: cell-based; details: HEK cells, cAMP HTRF, 250 nM forskolin; mean where tested more than once; read-out: CB2 HEK_cAMP EC50
Human CB2R (Cannabinoid receptor 2), sequence (P34972 whole entry): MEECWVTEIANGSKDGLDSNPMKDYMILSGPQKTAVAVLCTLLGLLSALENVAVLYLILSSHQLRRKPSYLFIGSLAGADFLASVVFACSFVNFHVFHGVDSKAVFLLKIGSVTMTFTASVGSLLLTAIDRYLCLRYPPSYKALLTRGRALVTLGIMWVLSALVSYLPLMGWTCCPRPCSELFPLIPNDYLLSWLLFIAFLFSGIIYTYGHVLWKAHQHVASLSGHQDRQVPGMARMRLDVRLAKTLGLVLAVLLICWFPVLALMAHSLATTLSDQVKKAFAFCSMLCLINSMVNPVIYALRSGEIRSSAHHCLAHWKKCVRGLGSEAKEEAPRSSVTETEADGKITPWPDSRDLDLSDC
Summary of the method: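 Competitive HTRF read-out (d2-labelled cAMP vs cryptate antibody) quantifies cAMP in stably transfected HEK-293 cells, seeded the day before at 4E5 cells/mL. Stimulation buffer: HBSS, 5 mM HEPES, 0.1% BSA, 0.5 mM IBMX; forskolin prepared at 1.5 μM in buffer; compounds serially diluted 1/3 in DMSO.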

Human CB1R (Cannabinoid receptor 1), sequence (P21554 whole entry): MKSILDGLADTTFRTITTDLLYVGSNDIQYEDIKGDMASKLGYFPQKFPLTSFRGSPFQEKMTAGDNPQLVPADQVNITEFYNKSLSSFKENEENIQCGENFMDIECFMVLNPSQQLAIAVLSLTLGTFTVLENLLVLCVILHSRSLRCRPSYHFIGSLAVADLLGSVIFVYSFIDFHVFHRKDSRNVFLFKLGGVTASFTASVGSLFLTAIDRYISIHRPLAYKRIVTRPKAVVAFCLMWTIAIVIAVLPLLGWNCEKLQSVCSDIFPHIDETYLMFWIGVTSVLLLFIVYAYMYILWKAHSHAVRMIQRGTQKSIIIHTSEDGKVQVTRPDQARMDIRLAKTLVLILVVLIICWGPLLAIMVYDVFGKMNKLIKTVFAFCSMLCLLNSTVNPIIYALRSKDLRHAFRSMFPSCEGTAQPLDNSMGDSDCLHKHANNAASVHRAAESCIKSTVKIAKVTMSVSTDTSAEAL

Work on `O=S(=O)(N1CCC(n2c(C3CC3)nc3ccc(C(CO)(c4ccc(Cl)cc4)c4ccc(Cl)cc4)cc32)CC1)C(F)(F)F` [Example 245] yielded an EC50 [1] of 283 nM and an EC50 [2] greater than 10000 nM.
`O=C(O)c1ccc(C(=O)N2CCC(n3c(C4CC4)nc4ccc(C(c5ccc(Cl)cc5)c5ccc(Cl)cc5)cc43)CC2)cc1` [Example 246] was tested, and the EC50 [1] was 1430 nM and the EC50 [2] was greater than 10000 nM.
With `NC(=O)CS(=O)(=O)N1CCC(n2c(C3CC3)nc3ccc(C(c4ccc(Cl)cc4)c4ccc(Cl)cc4)cc32)CC1` [Example 247] the EC50 [1] was 128 nM and the EC50 [2] was greater than 10000 nM.
`O=C(O)CS(=O)(=O)N1CCC(n2c(C3CC3)nc3ccc(C(c4ccc(Cl)cc4)c4ccc(Cl)cc4)cc32)CC1` [Example 248] was tested, and the EC50 [1] was 4240 nM and the EC50 [2] was greater than 10000 nM.
Work on `NC(=O)COc1ccc(S(=O)(=O)N2CCC(n3c(C4CC4)nc4ccc(C(c5ccc(Cl)cc5)c5ccc(Cl)cc5)cc43)CC2)cc1` [Example 249] yielded an EC50 [1] of 5 nM and an EC50 [2] of 1710 nM.
`COc1cc(S(=O)(=O)N2CCC(n3c(C4CC4)nc4ccc(C(c5ccc(Cl)cc5)c5ccc(Cl)cc5)cc43)CC2)ccc1C(N)=O` [Example 250] showed an EC50 [1] of 2.9 nM and an EC50 [2] of 9400 nM.
`COc1cc(S(=O)(=O)N2CCC(n3c(C4CC4)nc4ccc(C(c5ccc(Cl)cc5)c5ccc(Cl)cc5)cc43)CC2)ccc1C(=O)O` [Example 251] was tested, and the EC50 [1] was 5.8 nM and the EC50 [2] was 730 nM.
Work on `NC(=O)c1ccc(S(=O)(=O)N2CCC(n3c(C4CC4)nc4ccc(C(c5ccc(Cl)cc5)c5ccc(Cl)cc5)cc43)CC2)cc1Cl` [Example 252] yielded an EC50 [1] of 13.1 nM and an EC50 [2] of 6240 nM.
`O=C(O)c1ccc(S(=O)(=O)N2CCC(n3c(C4CC4)nc4ccc(C(c5ccc(Cl)cc5)c5ccc(Cl)cc5)cc43)CC2)cc1Cl` [Example 253] was tested, and the EC50 [1] was 4.7 nM and the EC50 [2] was 2420 nM.
In the case of `NC(=O)c1ccc(C(=O)N2CCC(n3c(C4CC4)nc4ccc(C(c5ccc(Cl)cc5)c5ccc(Cl)cc5)cc43)CC2)cc1` [Example 254], the EC50 [1] is reported as 36.6 nM and the EC50 [2] is reported as 1250 nM.
With `O=S(=O)(N1CCC(n2c(C3COC3)nc3ccc(C(O)(c4ccc(Cl)cc4)c4ccc(Cl)cc4)cc32)CC1)C(F)(F)F` [Example 255] the EC50 [1] was 7.3 nM and the EC50 [2] was greater than 10000 nM.
`O=C(O)COc1ccc(S(=O)(=O)N2CCC(n3c(C4CC4)nc4ccc(C(c5ccc(Cl)cc5)c5ccc(Cl)cc5)cc43)CC2)cc1` [Example 256] gave an EC50 [1] of 129 nM and an EC50 [2] greater than 10000 nM.
For `O=S(=O)(c1ccc(O)cc1)N1CCC(n2c(C3CC3)nc3ccc(C(c4ccc(Cl)cc4)c4ccc(Cl)cc4)cc32)CC1` [Example 257], the EC50 [1] was 5.4 nM and the EC50 [2] was greater than 10000 nM.
Work on `O=S(=O)(c1ccccc1O)N1CCC(n2c(C3CC3)nc3ccc(C(c4ccc(Cl)cc4)c4ccc(Cl)cc4)cc32)CC1` [Example 258] yielded an EC50 [1] of 20.1 nM and an EC50 [2] greater than 10000 nM.
`NC(=O)c1cccc(S(=O)(=O)N2CCC(n3c(C4CC4)nc4ccc(C(c5ccc(Cl)cc5)c5ccc(Cl)cc5)cc43)CC2)c1` [Example 260] showed an EC50 [1] of 1.5 nM and an EC50 [2] greater than 10000 nM.
Work on `COc1cccc(S(=O)(=O)N2CCC(n3c(C4CC4)nc4ccc(C(c5ccc(Cl)cc5)c5ccc(Cl)cc5)cc43)CC2)c1` [Example 261] yielded an EC50 [1] of 21.9 nM and an EC50 [2] greater than 10000 nM.
Molecule `NC(=O)c1ccc(S(=O)(=O)N2CCC(n3c(C4CC4)nc4ccc(C(c5ccc(Cl)cc5)c5ccc(Cl)cc5)cc43)CC2)cc1` [Example 262] has an EC50 [1] of 15.5 nM and an EC50 [2] greater than 10000 nM.
Work on `CCc1nc2ccc(C(C(=O)O)(c3ccc(Cl)cc3)c3ccc(Cl)cc3)cc2n1C1CCN(S(=O)(=O)C(F)(F)F)CC1` [Example 266] yielded an EC50 [1] of 18.4 nM and an EC50 [2] greater than 10000 nM.
`O=C(O)C(c1ccc(Cl)cc1)(c1ccc(Cl)cc1)c1ccc2nc(C3CC3)n(C3CCN(S(=O)(=O)C(F)(F)F)CC3)c2c1` [Example 267] showed an EC50 [1] of 7 nM and an EC50 [2] greater than 10000 nM.
With `O=C(O)CCC(=O)N1CCC(n2c(C3CC3)nc3ccc(C(c4ccc(Cl)cc4)c4ccc(Cl)cc4)cc32)CC1` [Example 269] the EC50 [1] was 1030 nM and the EC50 [2] was greater than 10000 nM.
Work on `CS(=O)(=O)N1CCC(n2c(C3CC3)nc3ccc(C(c4ccc(Cl)cc4)c4ccc(Cl)cc4)cc32)CC1` [Example 270] yielded an EC50 [1] of 6.6 nM and an EC50 [2] of 9900 nM.
